Reference: patent US20210308196A1, “COMPOSITIONS AND METHODS TO PROMOTE HOST DEFENSE AND STIMULATE, EXPAND, AND/OR RESET T CELL REPERTOIRES” (EVOLVE BIOSYSTEMS, INC., priority 2018, published 2021)

Key:
Type in all cases: in vivo, human
[1] = Immune development in C-section infants; conditions: baseline to three months
Excerpt: Approximately 25 mother-infant dyads are recruited to provide a cord blood sample and two infant blood samples, one on day 0-4 and another at 3 months old (between 84 and 104). Markers of immune function will be analysed and compared to the development of the gut microbiome.
The study design is described in FIG. 16. The change in levels of immune cells and markers from baseline (Day 0-Day 4) to three months (Day 84-Day 104) will be measured. The correlation between gut microbiota composition and abundance and levels of immune cells and markers may also be measured. The differences between B. infantis and placebo supplementation on levels of immune cells and markers in breast-fed infants.
The differences between B. infantis and placebo supplementation on vaccine response (antibody titers). Blood samples are collected at baseline and month-three postpartum for evaluation of peripheral blood mononuclear cell characterization (including regulatory T cells) and vaccine response.

[2] = test system: fatty acid binding proteins (FABPs) and glutathione S-transferase (α-GST); assay: Urine FABPs and α-GST (MILLIPLEX MAP luminex assay); conditions: treatment group
Excerpt: Glutathione S-transferases (α-GST) are enzymes present predominantly in liver, kidney and intestinal epithelial cells that are responsible for detoxification of intracellular toxins through conjugation to glutathione. In states of increased intestinal inflammation and permeability, plasma levels of (α-GST) are a peripheral marker of intestinal epithelial cell injury.

[3] = test system: fecal bacteria; assay: Fecal microscopy (Gram-stained light microscopy, SEM)
Description: Fecal Microscopy. All samples were fixed by adding equal amount of 5% glutaraldehyde in 0.2 M cacodylate buffer (final concentration 2.5% glutaraldehyde in 0.1 M cacodylate buffer) for 1-2 h before being processed for Gram-stained light microscopy and scanning electron microscopy (SEM). For light microscopy, conventional Gram-stained samples on slides were imaged under an EVOS Auto-FL system using a 60× lens and 2.7× optical zoom, under the same setting of the color camera. Five random fields of images were collected from each sample slide. For SEM, since the samples were previously frozen before fixation, the osmium post-fixation, and critical-point dry procedures were not performed. The fixed samples were dehydrated through an ethanol series and placed on membrane filters. The samples were mounted onto the SEM stubs, aired overnight, and then vacuum-oven dried at 50° C. for >2 h before sputter-coating with a thin layer of chromium using Denton Desk V sputter. Images were collected under various magnifications to capture bacterial morphology using a Hitachi […] field-emission SEM. Microscopy confirmed the high levels of Bifidobacterium in samples from the treatment group.

For “Bifidobacterium longum subsp. infantis EVC001 [B. infantis EVC001]”, the Inflammation [1] was “reduced”, the “Th17 and IL-17 level” value [1] was “decreased” and the Tregs [1] was “increased”. For the same substance, the “Urine levels of FABPs and α-GST” value [2] was “significantly reduced”, the “Bifidobacterium in fecal samples by microscopy” value ([3]; samples from the treatment group) was “high levels” and the “Gram staining of fecal smears” value ([3]; three fecal samples, Day 40) was “overwhelmingly contained Gram-positive bacteria”. For the same substance, the “Bacterial morphology in fecal samples” value ([3]; three fecal samples, Day 40, multiple fields of view) was “uniform morphology of rod-shaped bacteria”.
